Experimental data reported in patent US12692236B2, “Small molecule modulators of sigma-1 and sigma-2 receptors and uses thereof” (Northwestern University, priority 2018, dated 2026).
Like-named read-outs stand apart in the source and are kept apart here.

Assays:
sigma-1 receptor = sigma-1 receptor (Homo sapiens, UniProt Q99720); assay: sigma-1 receptor binding affinity (Ki)
sigma-2 receptor = sigma-2 receptor (Homo sapiens, UniProt Q5BJF2); assay: sigma-2 receptor binding affinity (Ki)
Chain of sigma-2 receptor (Q5BJF2 whole entry, species assumed): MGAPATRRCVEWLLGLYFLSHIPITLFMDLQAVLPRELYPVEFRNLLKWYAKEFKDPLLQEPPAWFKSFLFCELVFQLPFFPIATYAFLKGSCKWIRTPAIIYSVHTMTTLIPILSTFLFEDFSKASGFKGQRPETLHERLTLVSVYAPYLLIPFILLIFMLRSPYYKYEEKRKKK

Chain of sigma-1 receptor (Q99720 whole entry, species assumed): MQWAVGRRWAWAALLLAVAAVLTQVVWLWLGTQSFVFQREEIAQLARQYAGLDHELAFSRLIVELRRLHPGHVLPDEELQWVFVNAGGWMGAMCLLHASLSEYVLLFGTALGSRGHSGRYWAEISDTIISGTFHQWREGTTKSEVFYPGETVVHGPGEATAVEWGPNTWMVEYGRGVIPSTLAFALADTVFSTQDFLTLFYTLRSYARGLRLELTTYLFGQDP

| SMILES | Ki (sigma-1 receptor; read-out: Ki (nM) Sigma-1) [nM] | Ki (sigma-2 receptor; read-out: Ki (nM) Sigma-2) [nM] | other results |
| --- | --- | --- | --- |
| CCCn1nc(C(=O)N2CCCCC2)c2c1CCC(N1CCN(C)CC1)C2 (centres unmarked) [compound 196337, (5-(4-methylpiperazin-1-yl)-1-propyl-4,5,6,7-tetrahydro-1H-indazol-3-yl)(piperidin-1-yl)methanone] | 192 | 34 | activity against sigma-2 (in words) (sigma-2 receptor): great overall potency; selectivity for sigma-2 over sigma-1 (sigma-2 receptor): about 5 fold |
| CCCn1nc(C(=O)N(C)C)c2c1CCC(OCc1ccc(F)cc1)C2 (centres unmarked) [compound 200622, 5-((4-fluorobenzyl)oxy)-N,N-dimethyl-1-propyl-4,5,6,7-tetrahydro-1H-indazole-3-carboxamide] | > 10000 | > 10000 | activity against sigma-1 (in words) (sigma-1 receptor): completely lost; activity against sigma-2 (in words) (sigma-2 receptor): completely lost |
| O=C(c1nn(Cc2ccccc2)c2c1CC(NCCc1ccncc1)CC2)N1CCCCC1 (centres unmarked) [compound 201114, (1-benzyl-5-((2-(pyridin-4-yl)ethyl)amino)-4,5,6,7-tetrahydro-1H-indazol-3-yl)(piperidin-1-yl)methanone] | 249 | > 10000 | – |
| CCCn1nc(C(=O)N2CCCCC2)c2c1CCC(N1CCN(c3ccc([N+](=O)[O-])cc3)CC1)C2 (centres unmarked) [compound 200709, (5-(4-(4-Nitrophenyl)piperazin-1-yl)-1-propyl-4,5,6,7-tetrahydro-1H-indazol-3-yl)(piperidin-1-yl)methanone] | 1590 | 526 | – |
| CCCn1nc(C(=O)N2CCCCC2)c2c1CCC(Nc1ccc(Oc3ccccc3)cc1)C2 (centres unmarked) [compound 200702] | > 10000 | 310 | – |
| CCCn1nc(C(=O)N2CCCCC2)c2c1CCC(NCCc1ccc(O)cc1)C2 (centres unmarked) [compound 200643, (5-((4-Hydroxyphenethyl)amino)-1-propyl-4,5,6,7-tetrahydro-1H-indazol-3-yl)(piperidin-1-yl)methanone] | > 10000 | 273 | selectivity of sigma-2 ligands against sigma-1 (in words) (sigma-2 receptor): excellent selectivity; more potent against sigma-2 (sigma-2 receptor; relative to earlier dimethyl amide analogs): about 8 fold |
| CCCn1nc(C(=O)N(C)C)c2c1CCC(NC(=O)c1ccc(F)cc1)C2 (centres unmarked) [compound 2000623, 5-(4-fluorobenzamido)-N,N-dimethyl-1-propyl-4,5,6,7-tetrahydro-1H-indazole-3-carboxamide] | > 10000 | > 10000 | activity against sigma-1 (in words) (sigma-1 receptor): did not restore the activity; activity against sigma-2 (in words) (sigma-2 receptor): did not restore the activity |
| CCCn1nc(C(=O)N(C)C)c2c1CCC(NCc1ccc(F)cc1)C2 (centres unmarked) [compound 54121, 5-((4-Fluorobenzyl)amino)-N,N-dimethyl-1-propyl-4,5,6,7-tetrahydro-1H-indazole-3-carboxamide] | 1580 | 2190 | activity against sigma-1 (in words) (sigma-1 receptor): moderate activity; selectivity sigma-1 versus sigma-2 (in words) (sigma-1 receptor): slightly more selectivity for the sigma-1 receptor; Ki (sigma-1 receptor; read-out: Ki sigma-1): 1500 nM; activity against sigma-2 (in words) (sigma-2 receptor): moderate activity; Ki (sigma-2 receptor; read-out: Ki sigma-2): 2100 nM |
| CCCn1nc(C(=O)N(C)C)c2c1CCC(NCc1ccc(Cl)cc1)C2 (centres unmarked) [compound 200875, 5-((4-chlorobenzyl)amino)-N,N-dimethyl-1-propyl-4,5,6,7-tetrahydro-1H-indazole-3-carboxamide] | – | 1020 | activity against sigma-1 (in words) (sigma-1 receptor): complete loss of activity; activity against sigma-2 (in words) (sigma-2 receptor): moderate inhibition |
| CCCn1nc(C(=O)N2CCCCC2)c2c1CCC(N1CCC(N(C)C)CC1)C2 (centres unmarked) [compound 196331, (5-(4-(dimethylamino)piperidin-1-yl)-1-propyl-4,5,6,7-tetrahydro-1H-indazol-3-yl)(piperidin-1-yl)methanone] | > 10000 | > 10000 | – |
| O=C(c1c2c(nn1-c1ccccc1)CCC(NCCc1ccc(C(F)(F)F)cc1)C2)N1CCCCC1 (centres unmarked) [compound 201683, (2-Phenyl-5-((4-(trifluoromethyl)phenethyl)amino)-4,5,6,7-tetrahydro-2H-indazol-3-yl)(piperidin-1-yl)methanone] | 213 | > 10000 | – |
| O=C(c1nn(-c2ccccc2)c2c1CC(NCc1ccc(F)cc1)CC2)N1CCCCC1 (centres unmarked) [compound 2001685, (5-((4-Fluorobenzyl)amino)-1-phenyl-4,5,6,7-tetrahydro-1H-indazol-3-yl)(piperidin-1-yl)methanone] | 159 | > 10000 | improvement in potency against sigma-1 receptor (sigma-1 receptor; relative to the comparator analog named in the text): over 4 fold |
| O=C(c1nn(-c2ccccc2)c2c1CC(NCCc1cccc(O)c1)CC2)N1CCCCC1 (centres unmarked) [compound 201681, (5-((3-Hydroxyphenethyl)amino)-1-phenyl-4,5,6,7-tetrahydro-1H-indazol-3-yl)(piperidin-1-yl)methanone] | 204 | > 10000 | – |
| NC(=O)c1ccc(-n2nc3c(c2C(=O)N2CCCCC2)CC(NCCc2ccccc2)CC3)cc1 (centres unmarked) [compound 201242, 4-(5-(Phenethylamino)-3-(piperidine-1-carbonyl)-4,5,6,7-tetrahydro-2H-indazol-2-yl)benzamide] | 588 | > 10000 | – |
| O=C(c1c2c(nn1-c1ccccc1)CCC(NCCc1ccncc1)C2)N1CCCCC1 (centres unmarked) [compound 201670, (2-Phenyl-5-((2-(pyridin-4-yl)ethyl)amino)-4,5,6,7-tetrahydro-2H-indazol-3-yl)(piperidin-1-yl)methanone] | 226 | 296 | – |
| CCCn1nc(C(=O)N2CCCCC2)c2c1CCC(NCCc1cccc(O)c1)C2 (centres unmarked) [compound 200646, (5-((3-Hydroxyphenethyl)amino)-1-propyl-4,5,6,7-tetrahydro-1H-indazol-3-yl)(piperidin-1-yl)methanone] | 872 | 612 | – |
| O=C(c1nn(-c2ccccc2)c2c1CC(NCCc1ccc(F)cc1)CC2)N1CCCCC1 (centres unmarked) [compound 201667, (5-((4-Fluorophenethyl)amino)-1-phenyl-4,5,6,7-tetrahydro-1H-indazol-3-yl)(piperidin-1-yl)methanone] | 131 | 91 | selectivity sigma-1 versus sigma-2 (in words) (sigma-1 receptor): equipotent inhibitor against both sigma receptors |
| O=C(c1nn(-c2ccccc2)c2c1CC(NCCc1ccc3c(c1)OCO3)CC2)N1CCCCC1 (centres unmarked) [compound 201679, (5-((2-(Benzo[d][1,3]dioxol-5-yl)ethyl)amino)-1-phenyl-4,5,6,7-tetrahydro-1H-indazol-3-yl)(piperidin-1-yl)methanone] | 547 | 349 | – |
| O=C(c1c2c(nn1-c1ccccc1)CCC(NCc1ccccc1)C2)N1CCCCC1 (centres unmarked) [compound 201676, (5-(Benzylamino)-2-phenyl-4,5,6,7-tetrahydro-2H-indazol-3-yl)(piperidin-1-yl)methanone] | 38 | 139 | – |
| O=C(c1nn(-c2ccccc2)c2c1CC(NCCc1ccncc1)CC2)N1CCCCC1 (centres unmarked) [compound 201666, (1-Phenyl-5-((2-(pyridin-4-yl)ethyl)amino)-4,5,6,7-tetrahydro-1H-indazol-3-yl)(piperidin-1-yl)methanone] | 1030 | 517 | – |
| O=C(c1nn(-c2ccccc2)c2c1CC(NCc1ccccc1)CC2)N1CCCCC1 (centres unmarked) [compound 201665, (5-(Benzylamino)-1-phenyl-4,5,6,7-tetrahydro-1H-indazol-3-yl)(piperidin-1-yl)methanone] | 710 | 492 | – |
| CCCn1nc(C(=O)N2CCCCC2)c2c1CCC(NCCc1ccncc1)C2 (centres unmarked) [compound 200390, Piperidin-1-yl(1-propyl-5-((2-(pyridin-4-yl)ethyl)amino)-4,5,6,7-tetrahydro-1H-indazol-3-yl)methanone] | – | – | activity against sigma-1 (in words) (sigma-1 receptor): eliminated the activity; activity against sigma-2 (in words) (sigma-2 receptor): eliminated the activity |
| C=Cc1ccc(-n2nc(C(=O)N3CCCCC3)c3c2CCC(NCCc2ccccc2)C3)cc1 (centres unmarked) [compound 201244, (5-(Phenethylamino)-1-(4-vinylphenyl)-4,5,6,7-tetrahydro-1H-indazol-3-yl)(piperidin-1-yl)methanone] | 458 | 305 | – |
